“Also recorded” adds a separate entry of the source. Where two headings read alike, the source gives them in different places.
Assays:
[1] = Distribution coefficient (logD), octanol/PBS; assay type: physicochemical; details: n = 5
Method: A volume of 500 µL PBS including 0.5 MBq radioligand ([^89Zr]Zr-FSC(succ)2AA or [^89Zr]Zr-FSC(succ)3) was combined with 500 µL octanol. The mixture was vortexed for 15 min, and centrifuged for 2 min at 2000 rcf. Subsequently, 50 µL aliquots of the aqueous and the octanol layer were collected, measured in a 2480 Wizard^2 Automatic Gamma Counter (Perkin Elmer, Vienna, Austria), and distribution coefficient (logD) values were calculated using Excel 2013 (n = 5) (Redmond, WA, USA).

[2] = Protein binding assay in fresh human serum (size exclusion spin column); assay type: in vitro ADME; details: 37 °C, incubation time 7 days
Method: The protein binding property was evaluated by incubating [^89Zr]Zr-FSC(succ)2AA or [^89Zr]Zr-FSC(succ)3 for seven days at 37 °C in fresh human serum. Subsequently, 30 µL of the solution was passed through a size exclusion spin column (MicroSpinG-50 column, GE Healthcare, Buckinghamshire, UK) via centrifugation at 2000 rcf for 2 min. Protein binding of the complexes in triplicate was determined by measuring the activity on the column (non-protein bound) and the activity in the eluate (protein bound) in the gamma counter.

[3] = Stability assay in human serum; assay type: in vitro ADME; details: 37 °C, incubation time 7 days
Method: (§1) Determination of the stability of [^89Zr]Zr-DFO, [^89Zr]Zr-TAFC, [^89Zr]Zr-FSC(succ)2AA and [^89Zr]Zr-FSC(succ)3 was carried out by incubating the radioligands in PBS, a 1000-fold molar excess of ethylenediaminetetraacetic acid (EDTA) solution (radioligand vs. […] Then, the precipitate was washed three times using CH3CN before analysis.

[4] = Acid dissociation study in 1000-fold molar excess of EDTA solution; assay type: physicochemical
Method: as §1

[5] = Transchelation study: 89Zr-FSC derivative complexes with 1000-fold molar excess of DFO; assay type: physicochemical; details: RT, after 7 days
Method: (§2) [^89Zr]Zr-DFO (50 µL) was mixed with a 1000-fold molar excess of either FSC(succ)2AA or FSC(succ)3 and [^89Zr]Zr-TAFC (or [^89Zr]Zr-FSC(succ)2AA, [^89Zr]Zr-FSC(succ)3) (50 µL each) was mixed with a 1000-fold molar excess of DFO and incubated for seven days at RT. At selected time points, aliquots of the solutions were analyzed in triplicate directly via analytical RP-HPLC. The transchelation was determined by the ratio of [^89Zr]Zr-DFO and [^89Zr]Zr-FSC derivatives.

[6] = Biodistribution study in BALB/c mice; assay type: in vivo; details: i.v., 6 h p.i., n = 4
Method: For the evaluation of biodistribution, four female BALB/c mice (Charles River Laboratories, Sulzfeld, Germany) were intravenously injected with [^89Zr]Zr-FSC(succ)3 (1.5 MBq/mouse, 4.8 µg precursor) or [^89Zr]Zr-TAFC (1.5 MBq/mouse, 4 µg) into the tail vein and sacrificed by cervical dislocation at 6 h post injection (p.i.). Organs (spleen, pancreas, stomach, intestine, kidney, liver, heart, and lung), blood, muscle tissue, and bone were dissected, weighed and then measured in the gamma counter to calculate the percentage of injected dose per gram of tissue (% ID/g). Statistical analysis was performed using an independent two-population t-test (significance level p = 0.05) and Origin 6.1 software (Northampton, MA, USA).

[7] = MicroPET/CT imaging, image-based quantitation of bone uptake (knee); assay type: in vivo, BALB/c mice; details: BALB/c mouse, i.v., 24 h p.i., mean of left and right knees, n = 1
Method: Micro-Positron Emission Tomography/computer tomography (MicroPET/CT) imaging studies were carried out using an Inveon microPET/CT scanner (Siemens Preclinical Solutions, Knoxville, TN, USA). Healthy female BALB/c mice were injected intravenously with 5 MBq of either [^89Zr]Zr-FSC(succ)3 (16 µg, n = 1) or [^89Zr]Zr-TAFC (13 µg, n = 1). MicroPET/CT images were acquired under general anesthesia (isoflurane/O2) for 20 min. Imaging data were recorded via static scans at 80 min and 24 h p.i. The microPET/CT scans were reconstructed and merged with OSEM3D-SPMAP (PET, matrix size 256 × 256) and Feldkamp (CT, Shepp Logan filter). For evaluation of bone uptake, image-based quantitation was carried out by selecting volumes of interest around each knee region and % ID/cm^3 were calculated for both time points (VivoQuant image analysis software, Invicro LLC, Boston, MA, USA) and expressed as mean values of left and right knees to compare both compounds.

[8] = Solubility in water; assay type: physicochemical; details: unlabeled chelator
[9] = Transchelation study: [89Zr]Zr-DFO with 1000-fold molar excess of FSC(succ)2AA or FSC(succ)3; assay type: physicochemical; details: 1000-fold molar excess of FSC(succ)2AA or FSC(succ)3, RT, within 1 h
Method: as §2

[10] = parameters: method as in PMID 25941834; details: previously reported data; cited from earlier work
[11] = parameters: method as in PMID 25941834; details: human serum, incubation time 7 days, previously reported data; cited from earlier work
[12] = parameters: method as in PMID 25941834; details: incubation time 7 days, previously reported data; cited from earlier work

SMILES	Log D [1]	Protein Binding (%) [2]	Stability in Human Serum (%) [3]	intact complex ([4]; pH 6, 37 °C)	resistance to transchelation ([4]; pH 7, over seven days, 37 °C)	intact complex [5]	intact complex ([4]; pH 4, day 7, 37 °C)	activity in blood [6]	bone uptake in the knee [7]	solubility in water [8]	Log D [10]	Protein Binding (%) [11]	Stability in Human Serum (%) [12]	also measured
CC(=O)NC1CCCN([O-])C(=O)C=C(C)CCOC(=O)C(NC(=O)CCC(=O)[O-])CCCN([O-])C(=O)C=C(C)CCOC(=O)C(NC(=O)CCC(=O)[O-])CCCN([O-])C(=O)C=C(C)CCOC1=O.[89Zr+4] (mixture of isomers) [[^89Zr]Zr-FSC(succ)2AA]	−3.3 ± 0.1	5.9 ± 1.6%	99.4%	76%	excellent resistance to transchelation	30.8%								
CC1=CC(=O)N([O-])CCCC(NC(=O)CCC(=O)[O-])C(=O)OCCC(C)=CC(=O)N([O-])CCCC(NC(=O)CCC(=O)O)C(=O)OCCC(C)=CC(=O)N([O-])CCCC(NC(=O)CCC(=O)[O-])C(=O)OCC1.[89Zr+4] (mixture of isomers) [[^89Zr]Zr-FSC(succ)3]	−3.5 ± 0.4	8.3 ± 3.5%	99.5%	97.8%	excellent resistance to transchelation	62.1%	87.9%	0.11 ± 0.08 % ID/g	0.026 % ID/cm^3					activity in bone [6]: 0.24 ± 0.04 % ID/g; activity in heart [6]: 0.28 ± 0.08 % ID/g; activity in lung [6]: 0.21 ± 0.04 % ID/g; activity in muscle [6]: 0.25 ± 0.07 % ID/g
CC(=O)N([O-])CCCCCNC(=O)CCC(=O)N([O-])CCCCCNC(=O)CCC(=O)N([O-])CCCCCN.[89Zr+4] [[^89Zr]Zr-DFO, ^89Zr-desferrioxamine B]											−3.0 ± 0.1	8.7 ± 1.0%	99.3%	acid dissociation (decomposition) ([4]; pH 4): totally decomposing on day 3; transchelation ([4]; pH 7, over seven days, 37 °C): ~60%; transchelation of 89Zr from [89Zr]Zr-DFO to FSC(succ)2AA or FSC(succ)3 [9]: Almost quantitative transchelation; also recorded: total transchelation

Continued, in another order:

Log D [1]	Protein Binding (%) [2]	Stability in Human Serum (%) [3]	intact complex ([4]; pH 6, 37 °C)	resistance to transchelation ([4]; pH 7, over seven days, 37 °C)	intact complex [5]	intact complex ([4]; pH 4, day 7, 37 °C)	activity in blood [6]	bone uptake in the knee [7]	solubility in water [8]	SMILES	Log D [10]	Protein Binding (%) [11]	Stability in Human Serum (%) [12]	also measured
									high solubility in water	CC(=O)NC1CCCN(O)C(=O)/C=C(/C)CCOC(=O)C(NC(=O)CCC(=O)O)CCCN(O)C(=O)/C=C(/C)CCOC(=O)C(NC(=O)CCC(=O)O)CCCN(O)C(=O)/C=C(/C)CCOC1=O (stereo not drawn) [FSC(succ)2AA, Fusarinine C(succ)2AA]				
									high solubility in water	C/C1=C/C(=O)N(O)CCCC(NC(=O)CCC(=O)O)C(=O)OCC/C(C)=C\C(=O)N(O)CCCC(NC(=O)CCC(=O)O)C(=O)OCC/C(C)=C\C(=O)N(O)CCCC(NC(=O)CCC(=O)O)C(=O)OCC1 (stereo not drawn) [FSC(succ)3, Fusarinine C (succ)3]				
			94.4%	excellent resistance to transchelation	39.8%	70.3%	0.05 ± 0.01 % ID/g	0.016 % ID/cm^3		CC(=O)NC1CCCN([O-])C(=O)/C=C(/C)CCOC(=O)C(NC(C)=O)CCCN([O-])C(=O)/C=C(/C)CCOC(=O)C(NC(C)=O)CCCN([O-])C(=O)/C=C(/C)CCOC1=O.[89Zr+4] (stereo not drawn) [[^89Zr]Zr-TAFC, ^89Zr-triacetylfusarinine C, reference compound]	−2.0 ± 0.0	6.8 ± 0.5%	99.5%	
